Assay results as given in patent US20140017165A1, “DNA REPAIR ENZYME INHIBITOR NANOPARTICLES AND USES THEREOF” (priority 2011, published 2014).

What was measured:
ATM = ATM (Homo sapiens, UniProt Q13315); conditions: cited from earlier work
DNA-PK = DNA-PK (Homo sapiens, UniProt P78527); conditions: cited from earlier work
[1] = Maximum tolerated dose (MTD) of wortmannin formulations in non-tumor-bearing mice; conditions: mouse, in vivo, other: injected, mg/kg of wortmannin, in cremophor solution or encapsulated in nanoparticle (2% w/w)
Procedure: MTD, defined as the highest possible dose resulting in no animal deaths and less than 20% weight loss was evaluated for wortmannin formulations. Non-tumor-bearing mice (NOD/SCID, C57BL/6, CB6F1 and CD1) were injected with varying amounts of wortmannin nanoparticle and wortmannin in cremophor normalized to mg wortmannin injected/kg of mice body weight. The animals were weighed and observed daily for any change in physical activity. Weight loss greater than 20% and/or lethargy were interpreted as indications of toxicity and the mice were immediately euthanized.
Table 2 compares the maximum tolerated dose (MTD) of wortmannin in cremophor and wortmannin nanoparticle in different mouse strains.

[2] = Toxicity profile (hematologic toxicity, hepatotoxicity) in CD1 mice after tail vein i.v. injection; format: in vivo; conditions: single tail vein i.v.; for Hematologic Toxicity: Monocytes: normal range 0.1-1.5; for Hematologic Toxicity: Lymphocytes: normal range 0.5-5; for Hematologic Toxicity: Granulocytes: normal range 1.2-8; for Hematologic Toxicity: WBC: normal range 3.5-10; for Hepatotoxicity: ALT / Hepatotoxicity: AST: plasma, normal range 40-50 U/L
Procedure: CD1 mice were given tail vein i.v. injection with different wortmannin formulations (wortmannin nanoparticle or wortmannin in cremophor) at the indicated doses (⅕^th the MTD or 1/10th the MTD). After 24 h, submandibular bleeding was performed. Blood (100-200 ul) was collected in heparin coated tubes to prevent coagulation. Whole blood samples were immediately submitted for blood toxicity to the Animal Clinical Laboratory Core Facility at UNC. For liver toxicity studies, blood samples were centrifuged (15000×g for 10 minutes) to separate blood cells from the plasma and samples were submitted for analysis.
Table 3 and 4 show the toxicity profile in mice of wortmannin in cremophor and wortmannin nanoparticle.
Table 3 and 4. Toxicity profile in CD1 mice post i.v. injection of wortmannin formulations. Mice were treated with indicated doses of wortmannin or wortmannin nanoparticle containing an equivalent dose of wortmannin (2% w/w). (Single tail vein i.v. injection, toxicity profile 3 d post injection).

[3] = cited from earlier work
cancer cells = conditions: Bae et al. 2007, FIG. 6; cited from earlier work
[4] = 1/10th MTD of Wtmn (0.07 mg/kg)

ATM, sequence (Q13315 whole entry, species assumed): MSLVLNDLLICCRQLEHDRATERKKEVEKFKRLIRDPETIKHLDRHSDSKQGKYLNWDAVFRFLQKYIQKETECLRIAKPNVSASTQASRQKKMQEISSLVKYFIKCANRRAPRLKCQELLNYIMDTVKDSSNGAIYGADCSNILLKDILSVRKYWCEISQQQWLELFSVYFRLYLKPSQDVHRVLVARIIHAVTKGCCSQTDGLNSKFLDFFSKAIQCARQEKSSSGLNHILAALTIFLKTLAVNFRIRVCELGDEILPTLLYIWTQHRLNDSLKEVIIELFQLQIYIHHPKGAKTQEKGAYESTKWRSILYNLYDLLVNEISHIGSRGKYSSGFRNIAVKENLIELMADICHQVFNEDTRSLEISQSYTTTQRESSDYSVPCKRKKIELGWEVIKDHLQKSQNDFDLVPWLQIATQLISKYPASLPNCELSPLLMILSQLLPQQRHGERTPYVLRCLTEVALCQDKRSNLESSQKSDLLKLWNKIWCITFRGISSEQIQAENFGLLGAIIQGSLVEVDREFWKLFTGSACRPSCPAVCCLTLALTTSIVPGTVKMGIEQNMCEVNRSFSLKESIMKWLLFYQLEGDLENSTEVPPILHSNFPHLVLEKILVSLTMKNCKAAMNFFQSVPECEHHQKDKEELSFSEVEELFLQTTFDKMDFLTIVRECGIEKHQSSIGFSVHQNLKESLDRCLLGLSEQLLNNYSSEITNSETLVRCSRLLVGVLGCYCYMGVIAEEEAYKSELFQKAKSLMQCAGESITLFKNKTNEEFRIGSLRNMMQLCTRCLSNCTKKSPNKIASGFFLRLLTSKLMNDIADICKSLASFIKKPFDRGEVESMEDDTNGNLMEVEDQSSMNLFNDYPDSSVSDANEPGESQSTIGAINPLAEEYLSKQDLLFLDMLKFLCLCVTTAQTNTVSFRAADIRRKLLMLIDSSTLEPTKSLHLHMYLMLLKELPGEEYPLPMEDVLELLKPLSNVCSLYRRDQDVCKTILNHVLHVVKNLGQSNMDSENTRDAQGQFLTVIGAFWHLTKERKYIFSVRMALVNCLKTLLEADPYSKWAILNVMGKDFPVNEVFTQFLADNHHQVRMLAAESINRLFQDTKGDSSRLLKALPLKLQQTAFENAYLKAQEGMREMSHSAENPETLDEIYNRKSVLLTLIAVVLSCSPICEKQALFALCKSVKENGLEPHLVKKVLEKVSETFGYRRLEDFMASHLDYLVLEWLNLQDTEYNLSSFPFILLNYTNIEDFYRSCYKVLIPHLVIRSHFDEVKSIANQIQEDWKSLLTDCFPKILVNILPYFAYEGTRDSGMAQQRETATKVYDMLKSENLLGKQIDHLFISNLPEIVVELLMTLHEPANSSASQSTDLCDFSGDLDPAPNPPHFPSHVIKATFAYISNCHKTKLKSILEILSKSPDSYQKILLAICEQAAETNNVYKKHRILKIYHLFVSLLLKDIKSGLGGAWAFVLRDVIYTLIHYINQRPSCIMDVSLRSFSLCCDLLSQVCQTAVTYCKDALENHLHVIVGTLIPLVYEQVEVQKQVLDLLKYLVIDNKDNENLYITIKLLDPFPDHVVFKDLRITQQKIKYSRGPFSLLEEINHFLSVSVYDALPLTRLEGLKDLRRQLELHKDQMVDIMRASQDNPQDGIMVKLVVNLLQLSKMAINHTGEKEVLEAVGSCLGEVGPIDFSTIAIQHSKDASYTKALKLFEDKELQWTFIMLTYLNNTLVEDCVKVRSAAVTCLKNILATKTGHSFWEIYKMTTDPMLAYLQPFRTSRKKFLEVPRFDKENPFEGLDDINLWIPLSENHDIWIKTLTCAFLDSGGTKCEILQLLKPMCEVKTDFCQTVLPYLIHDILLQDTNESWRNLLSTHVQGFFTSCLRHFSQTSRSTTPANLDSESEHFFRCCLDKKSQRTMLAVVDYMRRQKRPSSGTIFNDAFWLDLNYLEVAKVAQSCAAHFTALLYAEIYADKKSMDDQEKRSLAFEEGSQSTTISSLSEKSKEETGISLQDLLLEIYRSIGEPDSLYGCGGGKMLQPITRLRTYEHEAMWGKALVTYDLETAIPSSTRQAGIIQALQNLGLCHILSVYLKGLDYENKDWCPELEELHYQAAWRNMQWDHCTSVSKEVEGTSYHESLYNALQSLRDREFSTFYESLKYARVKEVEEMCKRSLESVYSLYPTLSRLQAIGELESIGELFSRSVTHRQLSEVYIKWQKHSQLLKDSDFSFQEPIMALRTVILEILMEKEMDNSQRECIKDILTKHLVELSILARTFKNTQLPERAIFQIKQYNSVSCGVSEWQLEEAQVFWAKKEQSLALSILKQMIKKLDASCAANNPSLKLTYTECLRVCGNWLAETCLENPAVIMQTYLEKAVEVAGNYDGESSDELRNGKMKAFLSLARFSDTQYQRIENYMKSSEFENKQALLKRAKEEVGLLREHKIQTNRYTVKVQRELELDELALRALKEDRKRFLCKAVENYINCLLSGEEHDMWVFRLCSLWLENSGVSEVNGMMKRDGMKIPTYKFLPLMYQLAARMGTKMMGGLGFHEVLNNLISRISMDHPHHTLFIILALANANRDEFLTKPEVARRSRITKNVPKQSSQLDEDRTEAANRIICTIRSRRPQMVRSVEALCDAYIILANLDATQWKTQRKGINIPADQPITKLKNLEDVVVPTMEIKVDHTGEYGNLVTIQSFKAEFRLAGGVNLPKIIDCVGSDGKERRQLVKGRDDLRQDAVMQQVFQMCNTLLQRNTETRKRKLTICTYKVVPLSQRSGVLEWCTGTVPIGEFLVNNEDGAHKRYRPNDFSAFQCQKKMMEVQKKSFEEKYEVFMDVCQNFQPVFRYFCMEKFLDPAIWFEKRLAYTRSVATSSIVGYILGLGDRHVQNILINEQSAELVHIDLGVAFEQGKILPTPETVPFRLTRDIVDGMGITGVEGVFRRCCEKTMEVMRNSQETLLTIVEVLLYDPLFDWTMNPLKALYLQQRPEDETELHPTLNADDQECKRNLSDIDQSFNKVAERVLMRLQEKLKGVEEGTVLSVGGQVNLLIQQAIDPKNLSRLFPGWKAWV

Structure (SMILES): O=c1cc(-c2cccc3c2Sc2ccccc2S3)oc(N2CCOCC2)c1 [KU-55933, 2-morpholin-4-yl-6-thianthren-1-yl-pyran-4-one]
- inhibits ATM (ATM): low nanomolar concentrations

Structure (SMILES): O=c1cc(N2CCOCC2)oc2c(-c3cccc4c3sc3ccccc34)cccc12 [NU7441]
- IC50 (DNA-PK): 13 nM

Structure (SMILES): COC[C@H]1OC(=O)c2coc3c2[C@@]1(C)C1=C(C3=O)[C@@H]2CCC(=O)[C@@]2(C)C[C@H]1OC(C)=O [Wortmannin, wortmannin]
- MTD ([1]; C57BL/6 (Black) mice): 0.7 mg/kg
- MTD ([1]; CB6F1 (Brown) mice): 0.5 mg/kg
- MTD ([1]; CD1 (White) mice): 0.7 mg/kg
- MTD ([1]; NOD/SCID mice): 0.7 mg/kg
- Hematologic Toxicity: Monocytes ([2]; 1/5th MTD of Wtmn (0.14 mg/kg)): 0.55 ± 0.07 103/μl
- Hematologic Toxicity: Lymphocytes ([2]; 1/5th MTD of Wtmn (0.14 mg/kg)): 0.4 ± 0.42 103/μl
- Hematologic Toxicity: Granulocytes ([2]; 1/5th MTD of Wtmn (0.14 mg/kg)): 0.8 ± 0.14 103/μl
- Hematologic Toxicity: WBC ([2]; 1/5th MTD of Wtmn (0.14 mg/kg)): 2.8 ± 0.28 103/μl
- Hepatotoxicity: ALT ([2]; 1/5th MTD of Wtmn (0.14 mg/kg)): 134 ± 17 U/L
- Hepatotoxicity: AST ([2]; 1/5th MTD of Wtmn (0.14 mg/kg)): 44 ± 3 U/L
- Hematologic Toxicity: Monocytes [2, 4]: 0.8 ± 0.42 103/μl
- Hematologic Toxicity: Lymphocytes [2, 4]: 0.9 ± 0.28 103/μl
- Hematologic Toxicity: Granulocytes [2, 4]: 2.4 ± 0.11 103/μl
- Hematologic Toxicity: WBC [2, 4]: 4.3 ± 0.13 103/μl
- Hepatotoxicity: ALT [2, 4]: 64 ± 11 U/L
- Hepatotoxicity: AST [2, 4]: 40 ± 7 U/L
- half-life in serum [3]: approximately 10 minutes
- cytotoxicity against cancer cells (cancer cells): unexpectedly low cytotoxicity
